Tests used:
[1] = Activity coefficient of diester in saturated methanol solution, transformed from the solubility data; format: physicochemical; parameters: key: γ = ideal mole-fraction solubility / actual mole-fraction solubility
Source text: Solubility data can be compared to the ideal solubility. Two component solubility data (solute and solvent) at various temperatures can be easily calculated as a mole fraction of the solute in solution. The ratio of the mole fraction ideal solubility, xsolute ideal (calculated at the same temperature as the solubility data point) to each mole fraction solubility data point, xsolute actual is the activity coefficient, γsolute. These relationships are expressed mathematically, per equation (2)
In order to solve equation (3) for the activity coefficient, three experimental values are necessary: (i) the melting point of the solute, (ii) the heat of fusion of the solute in cal/g·mol and (iii) at least one value for the solubility of the specific solute in a specific solvent. Assuming the heat of fusion of the solute is constant over the range of temperatures, the relationship in equation (3) allows the mathematical transformation of the temperature and solubility data into an activity coefficient for the solute at each temperature. The terms in equation (3) are defined as follows: γsolute is the activity coefficient of the solute, xsolute is the mole fraction of the solute at a given temperature, T, in K; −ΔH^Fsolute is the heat of fusion in cal/g·mol of the solute, R is the ideal gas constant in cal/K·mol, T is the temperature of a given value for xsolute in K; and Tm(solute) is the melting temperature of the solute in K.
To interpret the solubility information, additional physical properties of diester were measured. The melting point was 124° C. (123-125° C.). The heat of fusion was 7422 cal/g·mole.
The solubility of diester, being a non-electrolyte, would obey the following thermodynamic relationship.
This relationship allows the weight % solubility versus temperature data to be mathematically transformed into an activity coefficient versus temperature data. The corresponding activity coefficient for each solubility data point is as follows: […]

[2] = Gravimetric solubility of diester in methanol (saturated solution); format: physicochemical
Experimental: The solubility of dimethyl-5-nitrophthalate (“diester”) in methanol was determined through the normal boiling of methanol, and presented in the following table:
Using glass pressure test tubes immersed in boiling water, an additional point for the solubility of diester at 100° C. was measured to be about 58 wt % diester.
Generally, the solubility was determined gravimetrically. A dilute slurry of diester and methanol was heated to a desired temperature. As needed, more diester solids were added to maintain a dilute slurry. The slurry was heated to a known temperature and stirred for approximately 15-30 minutes to assure the diester solids were equilibrated and the solution was saturated. Then, the stirring was stopped and the diester solids were allowed to settle. A sample of the supernatant liquid was obtained, the liquid was evaporated and the weight of the residual diester was measured. The weight of the residual diester solid was used to calculate the solubility of the diester solid in the methanol. This procedure was repeated for several different temperatures. Then, from the highest temperature, the procedure was repeated except the slurry was cooled to each sampling point and methanol was added instead of diester solids as necessary to maintain a dilute slurry. The difference in the solubility data sets between the heating data set and the cooling data set is an indication of how well equilibrium was obtained.

## COC(=O)c1cc(C(=O)OC)cc([N+](=O)[O-])c1 [Diester, dimethyl-5-nitro-isophthalate]
[1]; 25.5 C
  Activ Coef: 36.3
[1]; 31.1 C
  Activ Coef: 33.7
[1]; 34.1 C
  Activ Coef: 32.4
[1]; 34.6 C
  Activ Coef: 32.1
[1]; 39.6 C
  Activ Coef: 30.1
[1]; 44.0 C
  Activ Coef: 28.4
[1]; 44.3 C
  Activ Coef: 28.3
[1]; 52.4 C
  Activ Coef: 25.3
[1]; 54.1 C
  Activ Coef: 24.7
[1]; 61.2 C
  Activ Coef: 21.9
[1]; 65.3 C
  Activ Coef: 20.4
[1]; 65.4 C
  Activ Coef: 20.5
[1]; 100.0 C
  Activ Coef: 3.5
[2]; 25° C.
  solubility: about 1 wt. %
[2]; methanol, 25.5 C
  wt % Diester (solubility in methanol): 1.0% wt %
[2]; methanol, 31.1 C
  wt % Diester (solubility in methanol): 1.2% wt %
[2]; methanol, 34.1 C
  wt % Diester (solubility in methanol): 1.4% wt %
[2]; methanol, 34.6 C
  wt % Diester (solubility in methanol): 1.5% wt %
[2]; methanol, 39.6 C
  wt % Diester (solubility in methanol): 1.9% wt %
[2]; methanol, 44.0 C
  wt % Diester (solubility in methanol): 2.3% wt %
[2]; methanol, 44.3 C
  wt % Diester (solubility in methanol): 2.3% wt %
[2]; methanol, 52.4 C
  wt % Diester (solubility in methanol): 3.5% wt %
[2]; methanol, 54.1 C
  wt % Diester (solubility in methanol): 3.7% wt %
[2]; methanol, 61.2 C
  wt % Diester (solubility in methanol): 5.7% wt %
[2]; methanol, 65.3 C
  wt % Diester (solubility in methanol): 7.0% wt %
[2]; methanol, 65.4 C
  wt % Diester (solubility in methanol): 7.0% wt %
[2]; methanol, 100 C, glass pressure test tubes in boiling water
  wt % Diester (solubility in methanol): 58.0% wt %
[2]; methanol, 100 C, glass pressure test tubes in boiling water, listed as diester
  wt % Diester (solubility in methanol): about 58 wt %
[2]; methanol, 100 C, glass pressure test tubes in boiling water, listed as dimethyl-5-nitro-isophthalate
  wt % Diester (solubility in methanol): about 58 wt %
[2]; methanol, below normal boiling point
  maximum solubility obtained below the normal boiling point of methanol: 7 wt. %
[2]; methanol, temperature above 100° C.
  concentration of diester solutions obtained: greater than 70 wt. %

Source: US20080188680A1, “Process Improvement Using Solubility Characteristics” (priority 2005, published 2008)
